What was measured:
Assay type in all cases: in vivo
[1] = test system: yellow nutsedge (Cyperus esculentus); assay: Test B pre-/postemergence plant response; details: for Nutsedge, Yellow plant response rating: 8 g ai/ha
Summary of the method: (§1)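 Preemergence and postemergence (plants 2-18 cm, 1- to 4-leaf stage) applications used test chemicals in a non-phytotoxic solvent with surfactant. Plants were held in a greenhouse 13 to 15 days, then rated visually against controls on a 0-100 scale (0 no effect, 100 complete control).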

[2] = test system: wheat (Triticum aestivum); assay: Test B pre-/postemergence plant response; details: for Wheat plant response rating: 8 g ai/ha
Summary of the method: as §1

wild oat (Avena fatua) = assay: Test B pre-/postemergence plant response; details: for Oat, Wild plant response rating: 8 g ai/ha
Summary of the method: as §1

[3] = test system: barnyardgrass (Echinochloa crus-galli); assay: Test A pre-/postemergence plant response
Summary of the method: (§2)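 Both pre- and postemergence treatment given concurrently; postemergence seedlings measured 2–10 cm at the one- to two-leaf stage. Visual injury, 0–100 scale versus untreated, at ~10 days.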

[4] = test system: morningglory (Ipomoea coccinea); assay: Test A pre-/postemergence plant response
Summary of the method: as §2

[5] = test system: giant foxtail (Setaria faberi); assay: Test A pre-/postemergence plant response
Summary of the method: as §2

[6] = test system: large crabgrass (Digitaria sanguinalis); assay: Test A pre-/postemergence plant response
Summary of the method: as §2

corn (Zea mays) = assay: Test A pre-/postemergence plant response
Summary of the method: as §2

[7] = test system: velvetleaf (Abutilon theophrasti); assay: Test A pre-/postemergence plant response
Summary of the method: as §2

[8] = test system: canarygrass (Phalaris minor); assay: Test B postemergence plant response; details: for Plant response rating, Canarygrass: Postemergence
Summary of the method: (§3)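 Compounds applied after emergence to 2–18 cm plants; response read visually 13–15 days later on 0 (none) to 100 (complete control); a dash marks no result.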

[9] = test system: chickweed (Stellaria media); assay: Test B postemergence plant response; details: for Plant response rating, Chickweed: Postemergence
Summary of the method: as §3

[10] = test system: winter barley (Hordeum vulgare); assay: Test B postemergence plant response; details: for Plant response rating, Barley: Postemergence, scale 0 to 100, 0 no effect, 100 complete control
Summary of the method: as §3

[11] = test system: windgrass (Apera spica-venti); assay: Test B postemergence plant response; details: for Plant response rating, Windgrass: Postemergence
Summary of the method: as §3

[12] = Postemergence, 16 g ai/ha, scale 0 to 100
[13] = Postemergence, 31 g ai/ha, scale 0 to 100, 0 no effect, 100 complete control
[14] = Postemergence, 62 g ai/ha, scale 0 to 100, 0 no effect, 100 complete control
[15] = Preemergence, 16 g ai/ha, scale 0 to 100 (0 no effect, 100 complete control)
[16] = Preemergence, 31 g ai/ha, 0 to 100 scale, 0 no effect, 100 complete control
[17] = Preemergence, 62 g ai/ha, scale 0 to 100
[18] = Postemergence, 31 g ai/ha, 0 to 100 scale, 0 no effect, 100 complete control
[19] = Postemergence, 125 g ai/ha, 0 to 100 scale, 0 no effect, 100 complete control
[20] = Preemergence, 31 g ai/ha, 0 to 100 scale, 0 is no effect, 100 is complete control
[21] = Preemergence, 125 g ai/ha, 0 to 100 scale (0 no effect, 100 complete control)
[22] = 8 g ai/ha, postemergence, 0-100 scale
[23] = 31 g ai/ha, scale 0 to 100, 0 no effect, 100 complete control
[24] = 62 g ai/ha, scale 0 to 100, 0 no effect, 100 complete control

SMILES: Cc1cc(-c2ccc(Cl)cc2)nn1-c1c(OC(=O)c2cccc(Cl)c2)cnn(C)c1=O [Compound 32]
- Nutsedge, Yellow plant response rating ([1]; postemergence, 0-100 scale): 0
- Plant response rating, Nutsedge, Yellow [1, 12]: 0
- Plant response rating, Nutsedge, Yellow [1, 13]: 0
- Plant response rating, Nutsedge, Yellow [1, 14]: 0
- Plant response rating, Nutsedge, Yellow [1, 15]: 0
- Plant response rating, Nutsedge, Yellow [1, 16]: 0
- Plant response rating, Nutsedge, Yellow [1, 17]: 0
- Nutsedge, Yellow plant response rating ([1]; Preemergence, scale 0 to 100): 0
- Wheat plant response rating ([2]; postemergence, 0-100 scale): 0
- Plant response rating, Wheat [2, 12]: 30
- Plant response rating, Wheat [2, 15]: 0
- Plant response rating, Wheat [2, 16]: 20
- Plant response rating, Wheat [2, 17]: 70
- Wheat plant response rating ([2]; Preemergence, scale 0 to 100): 0
- Oat, Wild plant response rating (wild oat (Avena fatua); postemergence, 0-100 scale): 60
- Plant response rating, Oat, Wild (wild oat (Avena fatua); [12]): 85
- Plant response rating, Oat, Wild (wild oat (Avena fatua); [13]): 95
- Plant response rating, Oat, Wild (wild oat (Avena fatua); [14]): 95
- Plant response rating, Oat, Wild (wild oat (Avena fatua); [15]): 0
- Plant response rating, Oat, Wild (wild oat (Avena fatua); [16]): 60
- Plant response rating, Oat, Wild (wild oat (Avena fatua); [17]): 80
- Oat, Wild plant response rating (wild oat (Avena fatua); Preemergence, scale 0 to 100): 0
- Plant response rating, Barnyardgrass [3, 18]: 0
- Plant response rating, Barnyardgrass [3, 19]: 70
- Plant response rating, Barnyardgrass [3, 20]: 20
- Plant response rating, Barnyardgrass [3, 21]: 90
- Plant response rating, Morningglory [4, 18]: 0
- Plant response rating, Morningglory [4, 19]: 0
- Plant response rating, Morningglory [4, 20]: 0
- Plant response rating, Morningglory [4, 21]: 0
- Plant response rating, Foxtail, Giant [5, 18]: 10
- Plant response rating, Foxtail, Giant [5, 19]: 90
- Plant response rating, Foxtail, Giant [5, 20]: 90
- Plant response rating, Foxtail, Giant [5, 21]: 100
- Plant response rating, Crabgrass, Large [6, 18]: 10
- Plant response rating, Crabgrass, Large [6, 19]: 70
- Plant response rating, Crabgrass, Large [6, 20]: 90
- Plant response rating, Crabgrass, Large [6, 21]: 90
- Plant response rating, Corn (corn (Zea mays); [18]): 0
- Plant response rating, Corn (corn (Zea mays); [19]): 50
- Plant response rating, Corn (corn (Zea mays); [20]): 0
- Plant response rating, Corn (corn (Zea mays); [21]): 60
- Plant response rating, Velvetleaf [7, 18]: 0
- Plant response rating, Velvetleaf [7, 19]: 0
- Plant response rating, Velvetleaf [7, 20]: 0
- Plant response rating, Velvetleaf [7, 21]: 10
- Canarygrass plant response rating [8, 22]: 0
- Plant response rating, Canarygrass ([8]; 16 g ai/ha, scale 0 to 100): 10
- Plant response rating, Canarygrass [8, 23]: 10
- Plant response rating, Canarygrass [8, 24]: 30
- Chickweed plant response rating [9, 22]: 0
- Plant response rating, Chickweed ([9]; 16 g ai/ha, scale 0 to 100): 0
- Plant response rating, Chickweed [9, 23]: 0
- Plant response rating, Chickweed [9, 24]: 20
- Barley plant response rating [10, 22]: 0
- Plant response rating, Barley ([10]; 16 g ai/ha): 0
- Plant response rating, Barley ([10]; 31 g ai/ha): 0
- Plant response rating, Barley ([10]; 62 g ai/ha): 0
- Windgrass plant response rating [11, 22]: 0
- Plant response rating, Windgrass ([11]; 16 g ai/ha, scale 0 to 100): 0
- Plant response rating, Windgrass [11, 24]: 50

— US20100267561A1, “HERBICIDAL PYRIDAZINONE DERIVATIVES” (priority 2007, published 2010)
